Measurements taken from patent publication US9884832B2 (priority 2011, dated 2018).

target: AM2 S31 (wild-type serine at position 31 in the M2 protein), influenza virus A/Udorn/72 (Influenza A virus, UniProt P0DOF5); assay: cell-based; settings: 100 uM; Xenopus oocytes; activity range class
Sequence (P0DOF5 whole entry, looked up): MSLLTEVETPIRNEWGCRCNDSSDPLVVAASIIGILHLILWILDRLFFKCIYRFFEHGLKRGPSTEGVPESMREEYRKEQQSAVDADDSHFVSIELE

SMILES | S31 OOcyte Inhibition at 100 uM (%)
F[B-](F)(F)C[NH2+]C12CC3CC(CC(C3)C1)C2 [Example 204a, N-[(Trifluoro-4-boranyl)methyl]adamantan-1-aminium] | A ((A)=31-95%)

same assay, conditions: 100 uM; Xenopus oocytes; activity range class; read-out: S31 OOcyte Inhibition at 100 uM (%)

SMILES | inhibition at 100 µM [%]
c1csc(-c2cc(CNC34CC5CC(CC(C5)C3)C4)no2)c1 [Example 142a, N-((5-(thiophen-2-yl)isoxazol-3-yl)methyl)adamantan-1-amine] | 0 to 30
Cc1ccc(CNC23CC4CC(CC(C4)C2)C3)o1 [Example 67a] | 31 to 95
c1ccc(-c2ncc(CNC34CC5CC(CC(C5)C3)C4)cn2)nc1 [Example 64a, N-((2-(pyridin-2-yl)pyrimidin-5-yl)methyl)adamantan-1-amine] | 0 to 30
COC(=O)c1ccc(-c2ccc(CNC34CC5CC(CC(O)(C5)C3)C4)cc2)cc1 [Example 190a, 4′-[(3-Hydroxy-adamantan-1-ylamino)-methyl]-biphenyl-4-carboxylic acid methyl ester] | 0 to 30
Cc1ccc(-c2cc(CNC34CC5CC(CC(C5)C3)C4)no2)cc1 [Example 120a, N-((5-(p-tolyl)isoxazol-3-yl)methyl)adamantan-1-amine] | 0 to 30
Oc1c(CNC23CC4CC(CC(C4)C2)C3)ccc2ccccc12 [Example 53a, 2-(Adamantan-1-ylaminomethyl)-naphthalen-1-ol] | 31 to 95
Cc1ccc(CNC23CC4CC(CC(C4)C2)C3)cc1 [Example 8a, N-(4-Methylbenzyl)adamantan-1-amine] | 31 to 95
CC(NC12CC3CC(CC(C3)C1)C2)c1cc2ccccc2s1 (stereo not drawn) [Example 178a] | 31 to 95
c1coc(-c2ccc(CNC34CC5CC(CC(C5)C3)C4)cn2)c1 [Example 60a, N-((6-(furan-2-yl)pyridin-3-yl)methyl)adamantan-1-amine] | 0 to 30
c1csc(-c2ncc(CNC34CC5CC(CC(C5)C3)C4)s2)c1 [Example 144a, N-((2-(thiophen-2-yl)thiazol-5-yl)methyl)adamantan-1-amine] | 0 to 30
c1coc(-c2nc(CNC34CC5CC(CC(C5)C3)C4)no2)c1 [Example 160a, N-((5-(furan-2-yl)-1,2,4-oxadiazol-3-yl)methyl)adamantan-1-amine] | 0 to 30
COc1ccc(-c2nc(CNC34CC5CC(CC(C5)C3)C4)no2)cc1 [Example 126a, N-((5-(4-methoxyphenyl)-1,2,4-oxadiazol-3-yl)methyl)adamantan-1-amine] | 0 to 30
COc1ccc2nc(CN(Cc3nc4ccc(OC)cc4[nH]3)C34CC5CC(CC(C5)C3)C4)[nH]c2c1 [Example 201a, Adamantan-1-yl-bis-(6-methoxy-1H-benzoimidazol-2-ylmethyl)-amine] | 0 to 30
O=C1CCCN1c1ccc(CNC23CC4CC(CC(C4)C2)C3)cc1 [Example 45a, 1-(4-((adamantan-1-ylamino)methyl)phenyl)pyrrolidin-2-one] | 0 to 30
c1ccc(-c2nc(CNC34CC5CC(CC(C5)C3)C4)no2)cc1 [Example 131a, N-((5-phenyl-1,2,4-oxadiazol-3-yl)methyl)adamantan-1-amine] | 0 to 30
C(NC12CC3CC(CC(C3)C1)C2)c1noc(C2CC2)n1 [Example 166a] | 0 to 30
c1cc(-c2ccc(CNC34CC5CC(CC(C5)C3)C4)s2)[nH]n1 [Example 158a, N-((5-(1H-pyrazol-5-yl)thiophen-2-yl)methyl)adamantan-1-amine] | 0 to 30
OC12CC3CC(C1)CC(NCc1cc4sccc4s1)(C3)C2 [Example 192a, 3-[(Thieno[3,2-b]thiophen-2-ylmethyl)-amino]-adamantan-1-ol] | 0 to 30
Cc1nc(CNC23CC4CC(CC(C4)C2)C3)c[nH]1 [Example 99a, N-((2-methyl-1H-imidazol-4-yl)methyl)adamantan-1-amine] | 0 to 30
c1csc(-c2nnc(CNC34CC5CC(CC(C5)C3)C4)o2)c1 [Example 147a, Adamantan-1-yl-(5-thiophen-2-yl-[1,3,4]oxadiazol-2-ylmethyl)-amine] | 0 to 30
Oc1ccc2[nH]c(CNC34CC5CC(CC(C5)C3)C4)cc2c1 [Example 179a] | 0 to 30

same assay, conditions: Table 1; 100 uM; Xenopus oocytes, pH 5.5, -20 mV; read-out: S31 OOcyte Inhibition at 100 uM (%)

SMILES | inhibition at 100 µM [%]
Oc1ccc(CNC23CC4CC(CC(C4)C2)C3)c(O)c1O [Example 65, 4-(Adamantan-1-ylaminomethyl)-benzene-1,2,3-triol] | 0 to 30
NCc1ccc(CNC23CC4CC(CC(C4)C2)C3)cc1 [Example 13, Adamantan-1-yl-(4-aminomethyl-benzyl)-amine] | 0 to 30
c1csc(-c2ccc(CNC34CC5CC(CC(C5)C3)C4)cc2)c1 [Example 44, N-(4-(Thiophen-2-yl)benzyl)adamantan-1-amine] | 0 to 30
c1cn2cc(CNC34CC5CC(CC(C5)C3)C4)nc2s1 [Example 86, Adamantan-1-yl-imidazo[2,1-b]thiazol-6-ylmethyl-amine] | 31 to 95
c1cc(CNC23CC4CC(CC(C4)C2)C3)ccn1 [Example 73, Adamantan-1-yl-pyridin-4-ylmethyl-amine] | 31 to 95
C[Si](C)(C)CCCNCc1ccc(O)cc1O [Example 113, 4-[(3-Trimethylsilanyl-propylamino)-methyl]-benzene-1,3-diol] | 31 to 95
COc1ccc(CNC23CC4CC(CC(C4)C2)C3)c(OC)c1 [Example 59, Adamantan-1-yl-(2,4-dimethoxy-benzyl)-amine] | 0 to 30
Brc1ccc(CNC23CC4CC(CC(C4)C2)C3)cc1 [Example 41, N-(4-Bromobenzyl)adamantan-1-amine] | 31 to 95
CC(C)(C)C1CCC(NCc2ccc(O)cc2O)CC1 (stereo not drawn) [Example 109, 4-[(4-tert-Butyl-cyclohexylamino)-methyl]-benzene-1,3-diol] | 31 to 95
COC(=O)C(Cc1cnc[nH]1)NCC12CC3CC(CC(C3)C1)C2 (stereo not drawn) [Example 3, 2-[(Adamantan-1-ylmethyl)-amino]-3-(3H-imidazol-4-yl)-propionic acid methyl ester] | 0 to 30
c1nc2ccc(CNC34CC5CC(CC(C5)C3)C4)cc2[nH]1 [Example 94, Adamantan-1-yl-(3H-benzoimidazol-5-ylmethyl)-amine] | 0 to 30
c1ccc2sc(CNC34CC5CC(CC(C5)C3)C4)nc2c1 [Example 91, Adamantan-1-yl-benzothiazol-2-ylmethyl-amine] | 0 to 30
O=[N+]([O-])c1ccc(CNC23CC4CC(CC(C4)C2)C3)cc1 [Example 19, Adamantan-1-yl-(4-nitro-benzyl)-amine] | 31 to 95

same assay, conditions: Table 3; 100 uM; Xenopus oocytes, pH 5.5, -20 mV; read-out: S31 OOcyte Inhibition at 100 uM (%)

SMILES | inhibition at 100 µM [%]
CN(C)c1ncc(CNC23CC4CC(CC(C4)C2)C3)cn1 [Example 59b, N-((2-dimethylaminopyrimidin-5-yl)methyl)adamantan-1-amine] | 0 to 30
CSc1ccc(-c2cc(CNCC34CC5CC(CC(C5)C3)C4)no2)cc1 [Example 40b, 1-((3r,5r,7r)-adamantan-1-yl)-N-((5-(4-(methylthio)phenyl)isoxazol-3-yl)methyl)methanamine] | 0 to 30
COc1ccccc1-c1noc(CNC23CC4CC(CC(C4)C2)C3)n1 [Example 30b, N-((3-(2-methoxyphenyl)-1,2,4-oxadiazol-5-yl)methyl)adamantan-1-amine] | 0 to 30
c1cnc2[nH]c(CNC34CC5CC(CC(C5)C3)C4)nc2c1 [Example 82b, N-((3H-imidazo[4,5-b]pyridin-2-yl)methyl)adamantan-1-amine] | 0 to 30
FC(F)(F)Oc1ccc(-c2cc(CNC34CC5CC(CC(C5)C3)C4)no2)cc1 [Example 36b, N-((5-(4-(trifluoromethoxy)phenyl)isoxazol-3-yl)methyl)adamantan-1-amine] | 0 to 30
CSc1ccc(-c2cc(CNC34CC5CC(CC3C5)C4)no2)cc1 [Example 90b, (2R,3as,5S,6as)-N-((5-(4-(methylthio)phenyl)isoxazol-3-yl)methyl)octahydro-2,5-methanopentalen-3a-amine] | 0 to 30
CCSc1ncc(CNC23CC4CC(CC(C4)C2)C3)cn1 [Example 56b, N-((2-(ethylthio)pyrimidin-5-yl)methyl)adamantan-1-amine] | 0 to 30
CC(NC12CC3CC(CC(C3)C1)C2)c1ccc(C(C)(C)C)cc1 (stereo not drawn) [Example 3b, N-(1-(4-(tert-butyl)phenyl)ethyl)adamantan-1-amine] | 0 to 30
c1sc(CNC23CC4CC(CC(C4)C2)C3)cc1C1CC1 [Example 48b, N-((4-Cyclopropylthiophen-2-yl)methyl)adamantan-1-amine] | 0 to 30
Oc1cc(Cl)ccc1CNC12CC3CC(CC(C3)C1)C2 [Example 9b, 2-((-Adamantan-1-ylamino)methyl)-5-chlorophenol] | 31 to 95
c1nc(N2CCCCC2)ncc1CNC12CC3CC(CC(C3)C1)C2 [Example 58b, N-((2-(piperidin-1-yl)pyrimidin-5-yl)methyl)adamantan-1-amine] | 0 to 30
CSc1ccccc1-c1ccc(CNC23CC4CC(CC(C4)C2)C3)nc1 [Example 67b, Adamantan-1-yl-[5-(2-methylsulfanyl-phenyl)-pyridin-2-ylmethyl]-amine] | 31 to 95
COc1ccsc1-c1cc(CNC23CC4CC(CC(C4)C2)C3)no1 [Example 44b, N-((5-(3-methoxythiophen-2-yl)isoxazol-3-yl)methyl)adamantan-1-amine] | 0 to 30
Cc1csc(-c2ccc(CNC34CC5CC(CC(C5)C3)C4)cc2)c1 [Example 5b, N-(4-(4-Methylthiophen-2-yl)benzyl)adamantan-1-amine] | 0 to 30
CSc1ccc(-c2cc(CNC34CC5CCC(CC(C5)C3)C4)no2)cc1 [Example 91b, (1S,3R,8S)—N-((5-(4-(methylthio)phenyl)isoxazol-3-yl)methyl)tricyclo[4.3.1.13,8]undecan-1-amine] | 0 to 30
Oc1cc(-c2ccsc2)ccc1CNC12CC3CC(CC(C3)C1)C2 [Example 8b] | 0 to 30
